Test results taken from the CheMixHub ionic liquid set.

Assay: xn = mol fraction of the nth substance listed

CCCCCCCCCCCCCCCC[n+]1ccccc1.O=C([O-])C(O)c1ccccc1 + C[C@H](N)C(=O)O + O
electrical conductivity [S/m], 101 kPa
Settings	293.15 K	298.15 K	303.15 K	308.15 K	313.15 K
x1 = 1.08e-06, x2 = 0	0.00061	0.00068	0.00076	0.00083	0.0009
x1 = 1.09e-06, x2 = 0.0009002	0.0006	0.00069	0.00077	0.00087	0.00098
x1 = 1.09e-06, x2 = 0.001799	0.00068	0.00078	0.00088	0.001	0.0011
x1 = 1.98e-06, x2 = 0	0.001	0.0012	0.0013	0.0014	0.0016
x1 = 2.17e-06, x2 = 0.0009002	0.00107	0.00122	0.0014	0.0015	0.0017
x1 = 2.18e-06, x2 = 0.001799	0.00104	0.0012	0.00135	0.0015	0.0017
x1 = 2.88e-06, x2 = 0	0.00147	0.0016	0.0018	0.002	0.0022
x1 = 3.26e-06, x2 = 0.0009002	0.0015	0.0017	0.0019	0.0021	0.0024
x1 = 3.45e-06, x2 = 0.001799	0.00147	0.00167	0.00187	0.0021	0.0024
x1 = 3.96e-06, x2 = 0	0.0019	0.0022	0.0024	0.0026	0.0029
x1 = 4.52e-06, x2 = 0.0009002	0.00197	0.0022	0.0025	0.0028	0.0031
x1 = 4.54e-06, x2 = 0.001799	0.0019	0.00216	0.0024	0.0027	0.003
x1 = 4.69e-06, x2 = 0	0.0023	0.0026	0.0029	0.0031	0.0035
x1 = 5.61e-06, x2 = 0.0009002	0.00243	0.00275	0.0031	0.0034	0.0038
x1 = 5.81e-06, x2 = 0.001799	0.00234	0.00265	0.0029	0.0033	0.0036
x1 = 5.95e-06, x2 = 0	0.00281	0.0032	0.0035	0.0038	0.0042
x1 = 6.87e-06, x2 = 0.0009002	0.00295	0.0033	0.0037	0.0041	0.0045
x1 = 7.21e-06, x2 = 0	0.00341	0.0038	0.0042	0.0046	0.0051
x1 = 7.26e-06, x2 = 0.001799	0.00287	0.00323	0.0036	0.004	0.0044
x1 = 8.32e-06, x2 = 0.0009002	0.00346	0.00391	0.0043	0.0048	0.0053
x1 = 8.71e-06, x2 = 0.001799	0.00335	0.00379	0.00423	0.0047	0.0052
x1 = 8.83e-06, x2 = 0	0.00406	0.0046	0.005	0.0055	0.006
x1 = 9.58e-06, x2 = 0.0009002	0.00394	0.00445	0.00497	0.0055	0.0061
x1 = 1.045e-05, x2 = 0	0.00469	0.0053	0.0058	0.0065	0.0071
x1 = 1.071e-05, x2 = 0.001799	0.0039	0.00441	0.00494	0.0055	0.0061
x1 = 1.121e-05, x2 = 0.0009002	0.00434	0.00493	0.00552	0.0062	0.0069
x1 = 1.207e-05, x2 = 0	0.00516	0.0058	0.0064	0.0071	0.0079
x1 = 1.216e-05, x2 = 0.001799	0.00419	0.00476	0.00533	0.00596	0.0067
x1 = 1.284e-05, x2 = 0.0009002	0.00475	0.0054	0.006	0.0067	0.0075
x1 = 1.351e-05, x2 = 0	0.00562	0.00631	0.007	0.0077	0.0085
x1 = 1.361e-05, x2 = 0.001799	0.00459	0.0052	0.00583	0.00654	0.0073
x1 = 1.411e-05, x2 = 0.0009002	0.00513	0.0058	0.00649	0.0072	0.0081
x1 = 1.478e-05, x2 = 0	0.00603	0.0068	0.0075	0.0083	0.0092
x1 = 1.506e-05, x2 = 0.001799	0.00495	0.00559	0.00626	0.007	0.0079
x1 = 1.519e-05, x2 = 0.0009002	0.00545	0.00616	0.0069	0.0077	0.0085
x1 = 1.622e-05, x2 = 0	0.00644	0.0072	0.008	0.0089	0.0098
x1 = 1.646e-05, x2 = 0.0009002	0.00578	0.00652	0.0073	0.0081	0.009
x1 = 1.651e-05, x2 = 0.001799	0.00526	0.00598	0.00669	0.0075	0.0083
x1 = 1.766e-05, x2 = 0	0.00687	0.0077	0.0085	0.0094	0.0104
x1 = 1.778e-05, x2 = 0.001799	0.00557	0.00629	0.00707	0.0079	0.0088

CCCCn1cc[nH+]c1.O=S(=O)([N-]S(=O)(=O)C(F)(F)F)C(F)(F)F + N
313.2 K, 101 kPa
Settings	viscosity [mPa·s]
x1 = 0.2924	9.9
x1 = 0.337	12.9
x1 = 0.4007	19.3
x1 = 0.4495	24.3
x1 = 0.477	27.7
x1 = 0.4904	29.1
x1 = 0.575	38.7
x1 = 0.6515	45.8
x1 = 0.7028	51.3
x1 = 0.7906	54.5
x1 = 0.8999	52.5
x1 = 1	47.2

C[S+](C)C.O=S(=O)([N-]S(=O)(=O)C(F)(F)F)C(F)(F)F + N#CCCCC#N
101 kPa, x1 = 0.2085
Settings	viscosity [mPa·s]
278 K	21.84
303 K	9.44
318 K	6.433
328 K	5.159
333 K	4.664
338 K	4.238
348 K	3.558

CCCCCC[n+]1ccn(C)c1.F[B-](F)(F)F + NC(N)=O + O
298.15 K, 100 kPa
Settings	viscosity [mPa·s]
x2 = 0, x1 = 0.0153	2.79
x2 = 0.008814, x3 = 0.9759	2.96
x2 = 0.01758, x3 = 0.9671	2.88
x2 = 0.02591, x3 = 0.9588	2.91
x2 = 0.03448, x3 = 0.9502	2.92
x2 = 0.04235, x3 = 0.9424	2.94

CCCCCCCCCCCCCCCC[n+]1ccccc1.O=C([O-])C(O)c1ccccc1 + NCC(=O)NCC(=O)O + O
electrical conductivity [S/m], 101 kPa
Settings	293.15 K	298.15 K	303.15 K	308.15 K	313.15 K
x1 = 1.08e-06, x2 = 0	0.00061	0.00068	0.00076	0.00083	0.0009
x1 = 1.09e-06, x2 = 0.001799	0.00287	0.00346	0.00413	0.0049	0.0058
x1 = 1.27e-06, x2 = 0.0009002	0.00184	0.0022	0.0026	0.0031	0.0036
x1 = 1.98e-06, x2 = 0	0.001	0.0012	0.0013	0.0014	0.0016
x1 = 2.19e-06, x2 = 0.001799	0.00326	0.00391	0.0046	0.0054	0.0064
x1 = 2.36e-06, x2 = 0.0009002	0.00226	0.00268	0.0031	0.0036	0.0042
x1 = 2.88e-06, x2 = 0	0.00147	0.0016	0.0018	0.002	0.0022
x1 = 3.26e-06, x2 = 0.0009002	0.00264	0.0031	0.0036	0.0042	0.0048
x1 = 3.46e-06, x2 = 0.001799	0.00367	0.00438	0.0051	0.006	0.007
x1 = 3.96e-06, x2 = 0	0.0019	0.0022	0.0024	0.0026	0.0029
x1 = 4.17e-06, x2 = 0.0009002	0.00301	0.0035	0.004	0.0046	0.0053
x1 = 4.56e-06, x2 = 0.001799	0.00407	0.00482	0.0056	0.0066	0.0076
x1 = 4.69e-06, x2 = 0	0.0023	0.0026	0.0029	0.0031	0.0035
x1 = 5.44e-06, x2 = 0.0009002	0.00346	0.004	0.0046	0.0053	0.006
x1 = 5.47e-06, x2 = 0.001799	0.00441	0.00521	0.0061	0.007	0.0082
x1 = 5.95e-06, x2 = 0	0.00281	0.0032	0.0035	0.0038	0.0042
x1 = 6.89e-06, x2 = 0.0009002	0.00401	0.00464	0.0053	0.006	0.0069
x1 = 6.93e-06, x2 = 0.001799	0.00487	0.00571	0.0066	0.0077	0.0089
x1 = 7.21e-06, x2 = 0	0.00341	0.0038	0.0042	0.0046	0.0051
x1 = 8.34e-06, x2 = 0.0009002	0.00451	0.0052	0.0059	0.0068	0.0077
x1 = 8.38e-06, x2 = 0.001799	0.00536	0.00626	0.0072	0.0084	0.0097
x1 = 8.83e-06, x2 = 0	0.00406	0.0046	0.005	0.0055	0.006
x1 = 9.97e-06, x2 = 0.0009002	0.00504	0.00579	0.0066	0.0075	0.0085
x1 = 1.002e-05, x2 = 0.001799	0.00583	0.0068	0.0078	0.009	0.0104
x1 = 1.045e-05, x2 = 0	0.00469	0.0053	0.0058	0.0065	0.0071
x1 = 1.142e-05, x2 = 0.0009002	0.00547	0.00629	0.0071	0.0081	0.0092
x1 = 1.166e-05, x2 = 0.001799	0.0062	0.00723	0.0083	0.0096	0.011
x1 = 1.207e-05, x2 = 0	0.00516	0.0058	0.0064	0.0071	0.0079
x1 = 1.287e-05, x2 = 0.0009002	0.00582	0.00669	0.0076	0.0086	0.0098
x1 = 1.312e-05, x2 = 0.001799	0.0066	0.00763	0.0088	0.0101	0.0117
x1 = 1.351e-05, x2 = 0	0.00562	0.00631	0.007	0.0077	0.0085
x1 = 1.414e-05, x2 = 0.0009002	0.00617	0.00708	0.008	0.0091	0.0103
x1 = 1.476e-05, x2 = 0.001799	0.00697	0.0081	0.0093	0.0107	0.0122
x1 = 1.478e-05, x2 = 0	0.00603	0.0068	0.0075	0.0083	0.0092
x1 = 1.54e-05, x2 = 0.0009002	0.00651	0.0075	0.0084	0.0096	0.0108
x1 = 1.622e-05, x2 = 0	0.00644	0.0072	0.008	0.0089	0.0098
x1 = 1.622e-05, x2 = 0.001799	0.00735	0.0084	0.0097	0.0112	0.0128
x1 = 1.667e-05, x2 = 0.0009002	0.00687	0.0079	0.0089	0.0101	0.0114
x1 = 1.75e-05, x2 = 0.001799	0.00771	0.0088	0.0102	0.0117	0.0133
x1 = 1.766e-05, x2 = 0	0.00687	0.0077	0.0085	0.0094	0.0104
